Results: BindingDB's records for doi:10.1016/s0960-894x(02)00061-6 (Lek, 2002)

Biological target: Beta-lactamase TEM (Escherichia coli, UniProt P62593)
Assay: ChEBML_47839
Protocol: The compound was tested for its inhibitory activity towards Class A TEM-1 beta-lactamase from Escherichia coli at 0.3 umol

Sequence of Beta-lactamase TEM (P62593 whole entry): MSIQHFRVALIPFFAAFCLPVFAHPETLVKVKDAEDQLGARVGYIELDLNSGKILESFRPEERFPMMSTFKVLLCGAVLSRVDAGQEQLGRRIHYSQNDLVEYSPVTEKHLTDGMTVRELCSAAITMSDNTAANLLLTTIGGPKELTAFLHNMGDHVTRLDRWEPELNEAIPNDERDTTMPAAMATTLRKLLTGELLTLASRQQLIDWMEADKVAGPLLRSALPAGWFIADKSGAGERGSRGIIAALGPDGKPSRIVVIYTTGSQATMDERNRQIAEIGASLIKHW

## C/C=C1/C(=O)N2C(C(=O)O)=C3CCCCC3[C@H]12 (stereo partly drawn) [Sodium; (R)-1-eth-(E)-ylidene-2-oxo-1,2,5,6,7,8,8a,8b-octahydro-azeto[2,1-a]isoindole-4-carboxylate]
  IC50: 120 µM
